The text below walks through data of patent US20260069582A1, “POLYMORPH OF GLP-1R AGONIST COMPOUND, PREPARATION METHOD THEREFOR, AND USE THEREOF” (MINDRANK THERAPEUTICS (SUZHOU) NEW DRUG RESEARCH AND …, priority 2022, published 2026).

Data set [1] in a line: Equilibrium solubility study in biological media. Format: physicochemical. As to conditions: 37 °C, thermodynamic from solid, 37±2° C. How it is done:
In the tests, the solids were suspended in corresponding buffers to formulate suspensions (˜10 mg/mL), and the suspensions were mixed at 37±2° C. After 24 h, samples of the suspensions were taken. The supernatant was filtered, and the concentration was determined.

The nature of data set [2]: Solid state stability study (purity by HPLC and crystal form change). In kind it is physicochemical. Conditions: for Initial purity (%): before storage, HPLC.
A short description of data set [3]: Hygroscopic behavior test by dynamic vapor sorption (DVS). In kind it is physicochemical. As to conditions: 25° C. From the text: The experimental method for characterizing an acid salt or a base salt of compound I by dynamic vapor sorption (DVS) was as follows: A small amount of a powder of a polymorph of compound I was taken and placed into a precise sample tray that matches the instrument. After the sample was loaded, the sample tray was sent into the instrument for analysis. In this patent, the instrument model used in the dynamic vapor sorption analysis was Intrinsic PLUS; the experimental parameter was set as follows: A constant temperature of 25° C. was set; the mass percent change rate per unit time (dm/dt)=0.02%/min was used as a criterion for determining that a balance is achieved; the program humidity change cycle was set as follows: The initial relative humidity was 0%, and the endpoint relative humidity was 90%.

Data set [4] can be described thus: Drug absorption experiment in SD rats, intravenous administration. Format: in vivo. Conditions: rat, plasma, tail vein injection. How it is done:
Blood samples were collected at different time points before and after administration and then separated to prepare plasma. The concentration of the drug in plasma was determined by liquid chromatography-tandem mass spectrometry, and pharmacokinetic parameters were calculated using a non-compartmental model.

Data set [5] can be described thus: Drug absorption experiment in SD rats, intragastric administration. Format: in vivo. Conditions: for absolute bioavailability: after dose correction, based on AUC0-t. Here is the method:
Blood samples were collected at different time points after administration and then separated to prepare plasma. The concentration of the drug in plasma was determined by liquid chromatography-tandem mass spectrometry, and pharmacokinetic parameters were calculated using a non-compartmental model.

A short description of data set [6]: Transformation of metastable crystal forms on drying or standing (XRPD). In kind it is physicochemical. Here is the method:
After being stirred at room temperature for about 3 d, the mixture was filtered under vacuum. The resulting filter cake was metastable crystal form J of compound I. The product was analyzed and characterized by XRPD (FIG. 28).
The mixture was stirred at room temperature for 16 h and filtered. The resulting filter cake was metastable crystal form K of compound I. The product was analyzed and characterized by XRPD (FIG. 29).
The mixture was stirred at room temperature for about 3 d and filtered. The filter cake was dried at 50° C. for 16 h to give metastable crystal form L of compound I. The product was analyzed and characterized by XRPD (FIG. 30).
The mixture was stirred at 5° C. for about 1 d and filtered. The resulting filter cake was metastable crystal form M of compound I. The product was analyzed and characterized by XRPD (FIG. 31).
Crystal form C of compound I was heated to 80° C. at 10° C./min to give metastable crystal form N of compound I. The product was analyzed and characterized by XRPD (FIG. 32).

Where [7] appears, read: 25° C./60% RH, 7 days (long-term storage).
Where [8] appears, read: 40° C./75% RH, 7 days (accelerated).
[9] abbreviates: 60° C., RH<30%, 7 days (high-temperature).

Each structure is given as a SMILES string. Structures can show the parent of a compound that is named as a salt. Where two headings read alike, the source gives them in different places.

For orientation: solubility (thermodynamic) means solubility found after equilibrating the solid with the medium. For orientation: Cmax means the peak of the concentration-time curve. The half-life is the time needed for the level to fall by half in the phase considered. What is called Tmax is the time from dosing to the highest level. Turning to `O=C(O)c1ccc2nc(CN3CCC(Oc4cccc(COc5ccc(Cl)cc5F)n4)CC3)n(C[C@@H]3CCO3)c2c1` [Crystal form A of compound I, (S)-2-((4-((6-((4-chloro-2-fluorophenoxy)methyl)pyridin-2-yl)oxy)piperidin-1-yl)methyl)-1-(oxetan-2-ylmethyl)-1H-benzo[d]imidazole-6-carboxylic acid tromethamine salt (1:1)], the solubility (thermodynamic) at 24 h in data set [1] (FaSSIF) was 0.11 mg/mL; in data set [1] (FeSSIF), 0.45 mg/mL; in data set [1] (water, H2O), 0.44 mg/mL. In addition, the figures for the “Purity (%)” value in data set [2] (setting [7]), in data set [2] (setting [8]) and in data set [2] (setting [9]) were 99.18%, 99.17% and 98.83%, respectively. The “Initial purity (%)” value in data set [2] is on record as 99.30%. Further, the “Sample weight change at 80% RH (%)” value in data set [3] (DVS, 80% RH) is given as 1.03%. The “Whether the crystal form is changed” value in data set [3] (after DVS, 0-90% RH) is “No”. The AUC(0-t) in data set [4] (2 mg/kg) was 2.44 µg·h/mL; in data set [5] (5 mg/kg) it was 2.67 µg·h/mL. The values for the Cmax in data set [4] (2 mg/kg) and in data set [5] (5 mg/kg) were 7.64 µg/mL and 0.847 µg/mL, respectively. For the same compound, the half-life in data set [4] (2 mg/kg) is 1.88 h. The Tmax in data set [5] (5 mg/kg) is 0.25 h. The t1/2 in data set [5] (5 mg/kg) is listed as 3.59 h. This compound returned an absolute bioavailability in data set [5] of 43.7%.

With `O=C(O)c1ccc2nc(CN3CCC(Oc4cccc(COc5ccc(Cl)cc5F)n4)CC3)n(C[C@@H]3CCO3)c2c1` [Crystal form B of compound I, (S)-2-((4-((6-((4-chloro-2-fluorophenoxy)methyl)pyridin-2-yl)oxy)piperidin-1-yl)methyl)-1-(oxetan-2-ylmethyl)-1H-benzo[d]imidazole-6-carboxylic acid tromethamine salt (1:1)], the entries for the “Purity (%)” value in data set [2] (setting [7]), in data set [2] (setting [8]) and in data set [2] (setting [9]) were 98.74%, 98.73% and 98.67%, respectively. Also, in data set [2], the “Initial purity (%)” value worked out at 98.80%.

In the case of `O=C(O)c1ccc2nc(CN3CCC(Oc4cccc(COc5ccc(Cl)cc5F)n4)CC3)n(C[C@@H]3CCO3)c2c1` [Crystal form I of compound I, (S)-2-((4-((6-((4-chloro-2-fluorophenoxy)methyl)pyridin-2-yl)oxy)piperidin-1-yl)methyl)-1-(oxetan-2-ylmethyl)-1H-benzo[d]imidazole-6-carboxylic acid tromethamine salt (1:1)], the “Purity (%)” value in data set [2] (setting [7]) is listed as 98.41%; in data set [2] (setting [8]) it was 98.47%; in data set [2] (setting [9]), 98.48%. Also, the “Initial purity (%)” value in data set [2] came out at 98.44%.

With `O=C(O)c1ccc2nc(CN3CCC(Oc4cccc(COc5ccc(Cl)cc5F)n4)CC3)n(C[C@@H]3CCO3)c2c1` [Free form of compound I, (S)-2-((4-((6-((4-chloro-2-fluorophenoxy)methyl)pyridin-2-yl)oxy)piperidin-1-yl)methyl)-1-(oxetan-2-ylmethyl)-1H-benzo[d]imidazole-6-carboxylic acid], the “Purity (%)” value stood at 98.94% in data set [2] (setting [7]), 95.86% in data set [2] (setting [8]) and 89.15% in data set [2] (setting [9]). The “Initial purity (%)” value in data set [2] is given as 98.98%. Further, the AUC(0-t) was found to be 1.28 µg·h/mL in data set [4] (1 mg/kg) and 1.4 µg·h/mL in data set [5] (SD, rat, plasma, po, 5 mg/kg, read-out: AUC0-t). In addition, the Cmax came out at 3.2 µg/mL in data set [4] (1 mg/kg) and 0.6 µg/mL in data set [5] (SD, rat, plasma, po, 5 mg/kg, read-out: Cmax). Further, the half-life in data set [4] (1 mg/kg) was 3.89 h; in data set [5] (SD, rat, plasma, po, 5 mg/kg) it was 2.84 h. For the same compound, the Tmax in data set [5] (SD, rat, plasma, po, 5 mg/kg, read-out: Tmax) turned out to be 0.5 h. This compound had an absolute bioavailability in data set [5] of 21.8%.

Take `O=C(O)c1ccc2nc(CN3CCC(Oc4cccc(COc5ccc(Cl)cc5F)n4)CC3)n(C[C@@H]3CCO3)c2c1` [crystal form J, (S)-2-((4-((6-((4-chloro-2-fluorophenoxy)methyl)pyridin-2-yl)oxy)piperidin-1-yl)methyl)-1-(oxetan-2-ylmethyl)-1H-benzo[d]imidazole-6-carboxylic acid tromethamine salt (1:1)]: the Crystal form transformation entry in data set [6] (dried at 40° C. for 16 h) is “transformed to crystal form A”.

Regarding `O=C(O)c1ccc2nc(CN3CCC(Oc4cccc(COc5ccc(Cl)cc5F)n4)CC3)n(C[C@@H]3CCO3)c2c1` [crystal form K, (S)-2-((4-((6-((4-chloro-2-fluorophenoxy)methyl)pyridin-2-yl)oxy)piperidin-1-yl)methyl)-1-(oxetan-2-ylmethyl)-1H-benzo[d]imidazole-6-carboxylic acid tromethamine salt (1:1)], the Crystal form transformation entry in data set [6] (dried at 50° C. for 24 h) is “transformed to crystal form A”.

In the case of `O=C(O)c1ccc2nc(CN3CCC(Oc4cccc(COc5ccc(Cl)cc5F)n4)CC3)n(C[C@@H]3CCO3)c2c1` [crystal form L, (S)-2-((4-((6-((4-chloro-2-fluorophenoxy)methyl)pyridin-2-yl)oxy)piperidin-1-yl)methyl)-1-(oxetan-2-ylmethyl)-1H-benzo[d]imidazole-6-carboxylic acid tromethamine salt (1:1)], the Crystal form transformation entry in data set [6] (dried under vacuum at room temperature for about 16 h) and in data set [6] (let stand in an open flask at room temperature for about 16 h) was “transformed to crystal form D” each time.

Turning to `O=C(O)c1ccc2nc(CN3CCC(Oc4cccc(COc5ccc(Cl)cc5F)n4)CC3)n(C[C@@H]3CCO3)c2c1` [crystal form N, (S)-2-((4-((6-((4-chloro-2-fluorophenoxy)methyl)pyridin-2-yl)oxy)piperidin-1-yl)methyl)-1-(oxetan-2-ylmethyl)-1H-benzo[d]imidazole-6-carboxylic acid tromethamine salt (1:1)], the Crystal form transformation result in data set [6] (dried at 50° C. for 16 h) is on record as “transformed to crystal form B”.
